The values below come from patent publication US10703748B2, “Diazanaphthalen-3-yl carboxamides and preparation and use thereof” (Samumed, LLC, priority 2017, dated 2020).

The target in assay [1] is GSK3β kinase (Homo sapiens, UniProt P49841). Nature of the assay: GSK3β kinase activity (Ser/Thr 09 peptide Z-lyte FRET assay). It is filed as biochemical. The following applies: recombinant kinase, 46 μM ATP, one hour at room temperature; read-out: EC50.
The test system of assay [2] is IL-6. The assay is described as follows: IL-6 inhibition in LPS-stimulated human peripheral blood mononuclear cells (HTRF). The following applies: Homo sapiens, PBMC; for EC50: 22 h; for inhibition at 10 µM: read-out: percentage in parentheses after EC50 >10.
Assay [3] concerns Wnt-responsive Sp5-Luc reporter in SW480 colon carcinoma cells. Nature of the assay: Screening assay for Wnt activity (Sp5-Luc reporter gene assay). The following applies: Homo sapiens; for EC50: SW480; for inhibition at 10 µM: SW480, read-out: percent inhibition at 10 μM.
Assay [4] deals with DYRK1A kinase (Homo sapiens, UniProt Q13627). Nature of the assay: DYRK1A kinase activity (Ser/Thr 18 peptide Z-lyte FRET assay).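 Note: kinase activity read as coumarin/fluorescein emission ratio after development step, with unphosphorylated and phosphorylated peptide forms setting 0% and 100% controls, values from dose-response curves.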 Type of assay: biochemical. Conditions: recombinant DYRK1A, 30 μM ATP, one hour at room temperature.
Assay [5] has as its system SW480 colon carcinoma cells. Nature of the assay: Cell viability assay (CellTiter-Glo). Conditions: Homo sapiens; for EC50: SW480, 96 h; for inhibition at 10 µM: SW480, read-out: percent inhibition at 10 μM. In general terms: In ATP-based viability assays light output follows the ATP content of the culture.
Assay [6] has as its system α-smooth muscle actin (aSMA) positive LL29 cells. The assay is described as follows: Inhibition of the fibrotic process: αSMA staining in TGF-β1 treated LL29 fibroblasts from IPF patients. The following applies: Homo sapiens, Fibroblast; for EC50: 96 h; for inhibition at 10 µM: read-out: percentage in parentheses after EC50 >10.

Sequence of GSK3β kinase (P49841 whole entry): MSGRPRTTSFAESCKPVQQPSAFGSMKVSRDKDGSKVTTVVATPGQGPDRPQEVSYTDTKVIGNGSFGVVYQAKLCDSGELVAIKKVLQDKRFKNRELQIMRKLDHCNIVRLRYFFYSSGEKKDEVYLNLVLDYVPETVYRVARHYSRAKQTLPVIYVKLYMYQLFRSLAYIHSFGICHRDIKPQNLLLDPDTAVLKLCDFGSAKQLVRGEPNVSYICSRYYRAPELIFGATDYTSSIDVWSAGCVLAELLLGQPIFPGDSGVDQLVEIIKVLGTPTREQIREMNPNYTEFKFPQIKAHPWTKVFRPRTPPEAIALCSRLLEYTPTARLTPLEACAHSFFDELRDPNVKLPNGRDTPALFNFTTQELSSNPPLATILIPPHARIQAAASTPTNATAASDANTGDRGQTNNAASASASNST

As to `Cn1cc(-c2ccc3cnc(NC(=O)C4CCN(S(C)(=O)=O)CC4)nc3c2)cn1` [Compound 979, N-(7-(1-methyl-1H-pyrazol-4-yl)quinazolin-2-yl)-1-(methylsulfonyl)piperidine-4-carboxamide], the EC50 in assay [1], in assay [2], in assay [3], in assay [4], in assay [5] and in assay [6] was over 10 µM each time. In addition, the inhibition at 10 µM in assay [2] worked out at 6.4%; in assay [3], 20.3%; in assay [5], 16.7%; in assay [6], 23.2%.
Turning to `CN1CCCN(CC(=O)Nc2ncc3ccc(-c4cnn(C)c4)cc3n2)CC1` [Compound 1013, 2-(4-Methyl-1,4-diazepan-1-yl)-N-(7-(1-methyl-1H-pyrazol-4-yl)quinazolin-2-yl)acetamide], the EC50 was 0.532 µM in assay [1]; over 10 µM in assay [2]; over 10 µM in assay [3]; 0.075 µM in assay [4]; over 10 µM in assay [5]; over 10 µM in assay [6]. Also, the inhibition at 10 µM came out at 3.1% in assay [2], 0% in assay [3], 10.5% in assay [5] and 12.4% in assay [6].
With `CC(C)CN1CCC(CC(=O)Nc2ncc3ccc(-c4cnn(C)c4)cc3n2)C1` (stereo not shown) [Compound 1029, 2-(1-Isobutylpyrrolidin-3-yl)-N-(7-(1-methyl-1H-pyrazol-4-yl)quinazolin-2-yl)acetamide], the EC50 in assay [1] is 0.238 µM; in assay [2], over 10 µM; in assay [3], 2.91 µM; in assay [4] it was 0.045 µM; in assay [5] it was over 10 µM; in assay [6], over 10 µM. In addition, the inhibition at 10 µM in assay [2] worked out at 3.2%; in assay [5], 38.5%; in assay [6], 28%.
As to `CN1CCC(Oc2ccc(C(=O)Nc3ncc4ccc(-c5cnn(C)c5)cc4n3)cc2)CC1` [Compound 1052, N-(7-(1-Methyl-1H-pyrazol-4-yl)quinazolin-2-yl)-4-((1-methylpiperidin-4-yl)oxy)benzamide], the EC50 in assay [1] is 9.43 µM; in assay [2] it was over 10 µM; in assay [3], 3.15 µM; in assay [4], 0.035 µM; in assay [5] it was 5.37 µM; in assay [6], 8.74 µM. In assay [2], the inhibition at 10 µM stood at 3.8%.
Regarding `CCN(CC)CC(=O)Nc1ncc2ccc(-c3cnn(C)c3CN3CCCCC3)cc2n1` [Compound 1189, 2-(Diethylamino)-N-(7-(1-methyl-5-(piperidin-1-ylmethyl)-1H-pyrazol-4-yl)quinazolin-2-yl)acetamide], the EC50 in assay [1] was 1.69 µM; in assay [2], over 10 µM; in assay [3], over 10 µM; in assay [4], 0.186 µM; in assay [5], over 10 µM; in assay [6], over 10 µM. Also, the inhibition at 10 µM in assay [2] was 7.9%; in assay [3], 29.5%; in assay [5], 17.4%; in assay [6], 18%.
`Cn1cc(-c2ccc3cnc(NC(=O)C(C)(C)F)nc3c2)nn1` [Compound 1239, 2-Fluoro-2-methyl-N-(7-(1-methyl-1H-1,2,3-triazol-4-yl)quinazolin-2-yl) propanamide]: the EC50 in assay [1] is 0.112 µM; in assay [2] it was over 10 µM; in assay [3], over 10 µM; in assay [4] it was 0.171 µM; in assay [5] it was over 10 µM; in assay [6], over 10 µM. For the same compound, the inhibition at 10 µM in assay [2] was 7.3%; in assay [3] it was 47.4%; in assay [5], 17.2%; in assay [6], 13.5%.
With `Cn1cc(-c2ccc3cnc(NC(=O)C4CCN(CC5(C)COC5)CC4)nc3c2)nn1` [Compound 1254, N-(7-(1-Methyl-1H-1,2,3-triazol-4-yl)quinazolin-2-yl)-1-((3-methyloxetan-3-yl)methyl)piperidine-4-carboxamide], the EC50 in assay [1] was 0.069 µM; in assay [2], over 10 µM; in assay [3], over 10 µM; in assay [4], 0.104 µM; in assay [5] it was over 10 µM; in assay [6], 6.97 µM. Also, the figures for the inhibition at 10 µM in assay [2], in assay [3] and in assay [5] were 3.8%, 31.7% and 11.2%, respectively.
As to `Cn1cncc1-c1ccc2cnc(NC(=O)C3CCC(F)(F)CC3)nc2c1` [Compound 1306, 4,4-Difluoro-N-(7-(1-methyl-1H-imidazol-5-yl)quinazolin-2-yl)cyclohexane-1-carboxamide], the EC50 in assay [1] was 0.377 µM; in assay [2] it was 8.81 µM; in assay [3], over 10 µM; in assay [4], 0.391 µM; in assay [5], over 10 µM; in assay [6], 1.8 µM. Moreover, the inhibition at 10 µM in assay [3] worked out at 42.4%; in assay [5], 43.7%.
Consider `O=C(Nc1ncc2ccc(-c3cnco3)cc2n1)C1CCN(C(=O)CN2CCCC2)CC1` [Compound 1438, N-(7-(Oxazol-5-yl)quinazolin-2-yl)-1-(2-(pyrrolidin-1-yl)acetyl)piperidine-4-carboxamide], for which the EC50 was 5.18 µM in assay [1]; over 10 µM in assay [2]; over 10 µM in assay [3]; 0.1 µM in assay [4]; over 10 µM in assay [5]; over 10 µM in assay [6]. The inhibition at 10 µM was found to be 9.6% in assay [2], 10% in assay [3], 14.7% in assay [5] and 29.6% in assay [6].
In the case of `Cc1ncc(-c2ccc3cnc(NC(=O)[C@H]4C[C@H](N5CCOCC5)C4)nc3c2)o1` [Compound 1462, trans-N-(7-(2-Methyloxazol-5-yl)quinazolin-2-yl)-3-morpholinocyclobutane-1-carboxamide], the half-maximal effective concentration (EC50) in assay [1] is 0.707 µM; in assay [2] it was over 10 µM; in assay [3], over 10 µM; in assay [4], 0.37 µM; in assay [5], over 10 µM; in assay [6], over 10 µM. Also, the inhibition at 10 µM in assay [2] was 0%; in assay [3] it was 13.6%; in assay [5], 20.9%; in assay [6], 14.5%.
`Cc1ncc(-c2ccc3cnc(NC(=O)C4CCN(CC(C)(F)F)CC4)nc3c2)o1` [Compound 1471, 1-(2,2-Difluoropropyl)-N-(7-(2-methyloxazol-5-yl)quinazolin-2-yl)piperidine-4-carboxamide]: the EC50 in assay [1] was 0.578 µM; in assay [2], over 10 µM; in assay [3] it was over 10 µM; in assay [4], 0.046 µM; in assay [5], over 10 µM; in assay [6] it was over 10 µM. Besides, the inhibition at 10 µM came out at 1.8% in assay [2], 17.8% in assay [3], 11.3% in assay [5] and 43.6% in assay [6].
With `Cc1ncc(-c2ccc3cnc(NC(=O)N4CCC(N5CCOCC5)CC4)nc3c2)o1` [Compound 1472, N-(7-(2-Methyloxazol-5-yl)quinazolin-2-yl)-4-morpholinopiperidine-1-carboxamide], the EC50 was 2.33 µM in assay [1]; over 10 µM in assay [2]; over 10 µM in assay [3]; 0.246 µM in assay [4]; over 10 µM in assay [5]; over 10 µM in assay [6]. The inhibition at 10 µM in assay [2] is 7.6%; in assay [3], 1.6%; in assay [5] it was 16.7%; in assay [6] it was 33.9%.
Consider `Cc1ncc(-c2ccc3cnc(NC(=O)Cn4ccnc4)nc3c2)o1` [Compound 1495, 2-(1H-Imidazol-1-yl)-N-(7-(2-methyloxazol-5-yl)quinazolin-2-yl)acetamide], for which the EC50 was 0.254 µM in assay [1]; over 10 µM in assay [2]; 1.51 µM in assay [3]; 0.113 µM in assay [4]; over 10 µM in assay [5]; over 10 µM in assay [6]. Further, the figures for the inhibition at 10 µM in assay [2], in assay [5] and in assay [6] were 3.2%, 25.5% and 48.5%, respectively.
As to `Cc1nnc(-c2ccc3cnc(NC(=O)CN4C5CCC4COC5)nc3c2)s1` [Compound 1634, 2-(3-Oxa-8-azabicyclo[3.2.1]octan-8-yl)-N-(7-(5-methyl-1,3,4-thiadiazol-2-yl)quinazolin-2-yl)acetamide], the EC50 in assay [1] was 0.224 µM; in assay [2], over 10 µM; in assay [3], over 10 µM; in assay [4], 0.342 µM; in assay [5] it was over 10 µM; in assay [6], over 10 µM. Further, the inhibition at 10 µM in assay [2] came to 5.4%; in assay [3], 16.4%; in assay [5] it was 13.7%; in assay [6], 18.3%.
Turning to `Cc1nnc(-c2ccc3cnc(NC(=O)c4ccnc(N5CCN(C)CC5)c4)nc3c2)s1` [Compound 1656, N-(7-(5-Methyl-1,3,4-thiadiazol-2-yl)quinazolin-2-yl)-2-(4-methylpiperazin-1-yl)isonicotinamide], the EC50 was 0.34 µM in assay [1]; over 10 µM in assay [2]; 1.2 µM in assay [3]; 0.065 µM in assay [4]; 2.21 µM in assay [5]; 1.76 µM in assay [6]. The inhibition at 10 µM in assay [2] is 6%.

Usually EC50 stands for the concentration that produces a half-maximal response.
